Entries after “also recorded” stand apart in the source; their conditions may differ.
Key:
[1] = tested on: Beta-D-glucosidase; test: Beta-D-glucosidase activity under gas; assay type: biochemical; conditions: for effect: plus = enhancement
Experimental: (§1) Solution preparation: Optimized w/v solutions are prepared by diluting the enzyme (units/ml) and the substrate (μg/ml) in appropriate buffer (optimized pH and molarity for enzymes). The solutions are used for gas experiments at once to avoid loss of activity. Various enzyme and substrate concentrations and inhibitors may be employed. Physical parameters are varied as required.
(§2) Preparation of samples: Cuvets are filled with 2 ml of substrate solution by means of a gas-tight syringe. Gas-tight serum vials are filled with enzyme and solvent. Sufficient gas is consecutively bubbled in the cuvets and serum vials, with a 1-hr wait between injections to maximize equilibration of gas. All syringes and dead spaces are purged before filling with the appropriate gas. The amount of gas used has been measured sufficient to saturate the solution required.
(§3) Spectrophotometric time-drive, reaction rate, and kinetic analyses: cuvets and serum vials are saturated with gas 40 minutes before the run. A gas-filled syringe is used to retrieve 0.5 ml of enzyme solution to avoid air contact. The 0.5 ml syringe injections of enzyme are made simultaneously to effect a common starting time to for the samples. 7 gases (air, O2, N2, Ne, Ar, Kr, Xe) are run at various temperatures each (from 0° to 60° ). Changes in the rate or final equilibrium of the reaction versus ambient air are recorded. Comparison is also made with added oxygen, and with deoxygenation. Some samples are also prepared under pressure.
(§4) In a complete experiment, an enzyme at optimal pH and buffering salt concentration is reacted with 5 substrate concentrations in solution with noble gas at 1 atm. […] Controls are also run after evacuation of solution by vacuum. The reaction is monitored colorimetrically in a scanning spectrophotometer in real time, and the signals are treated mathematically to obtain rate and yield differences. Sample numbers are constant and sufficient to ensure significance of results. All parameters are independently controlled and measured, and more complex experiments are occasionally carried out.

[2] = biological target: Phosphoglucose isomerase (Homo sapiens, UniProt P06744); test: Phosphoglucose isomerase activity under gas; assay type: biochemical; conditions: for effect: phosphoglucose isomerase; for effect, stressed: stressed = nonoptimal substrate concentration or temperature
Experimental: as §1, §2, §3, §4

[3] = tested on: Acetyl S-CoA synthetase; test: Acetyl S-CoA synthetase activity under gas (coupled sequence or isolated reaction); assay type: biochemical; conditions: for Maximum observed enhancement / maximum observed inhibition: depending upon temperature
Experimental: as §1, §2, §3
Maximum observed enhancement vs maximum observed inhibition (depending upon temperature):
In a coupled complex reaction sequence including hydrolytic enzymes: […]

[4] = tested on: Tyrosinase; test: High pressure experiments, tyrosinase; assay type: biochemical, Mushroom; conditions: for % inhibition of gases relative to 1 atmosphere of air: value before the slash (not pressurized)
Experimental: Shake the enzyme in each cylinder for several minutes and then remove a 5 ml sample for Control B and Control C. Remove cylinders to the dock, gassing with the appropriate gas; bring pressure slowly up to 30.6 atm. Let sit at the required pressure for 60 minutes. Slowly depressurize to 2 psi before bringing into the lab. Bring the cylinders back to the dock and repressurize to 100 atm with the appropriate gas. Let sit at the required pressure for 60 minutes. Slowly depressurize to 2 psi before bringing into the lab. […] Shake the enzyme in each cylinder for several minutes and then remove a 5 ml sample for Control B and Control C. Remove cylinders to the dock, gassing with the appropriate gas. Remove headspace/residual gas by pressurizing and depressurizing the gas cylinder several times. Bring pressure slowly up to 30.6 atm. Let sit at the required pressure for 60 minutes. Slowly depressurize to 40 psi before bringing into the lab. Enzyme injection: […] The cylinders were pressurized as described above. The cylinder pressure was released and the cylinders repressurized 10 times to remove O2 from the cylinders. Final Pressurization: […] Cylinder 3 was pressurized to 1 atm with Xe then pressurized to 30.6 atm with N2 to conserve Xe. Time Table: […] Due to the fact that on 4/25/91 the spectrophotometers were being used at 5° C. for a different experiment the decision was made to sample the cylinders at the end of the day when the spectrophotometer was available to be put at 25° C. Sampling took place 28 hours after pressurization. A spectro/gas run was immediately preformed on these samples. Apr. 25, 1991 Repressurization: Cylinders were repressurized at 6:00 pm on 4/25/91 to 100 atm. These cylinders will be sampled at 2:00 pm Apr. 26, 1991 (20 hrs after pressurization). Cuvettes were filled for the 2 atm experiments for both enzymes. Each cuvette was gassed 10×10 cc with the appropriate gas and refrigerated for 15 minutes prior to running. Serum vials were filled with 5 cc of the corresponding enzyme and gassed with 10×10 cc of the appropriate gas prior to running. The spectrophotometers were set up such that a continuous flow of each gas could be delivered to each spectro at all times. A 100 […] gauge was installed to read the cuvette pressure and 2 on/off valves were installed so that the reference cell could be pressurized during the second replicate. A ball valve was installed between the cylinder/house line and the gauge so that gas flow could be controlled directly at the spectrophotometers. A check valve was placed in each line to ensure that a back pressure would not cause contamination of the house lines or the gas cylinders. The cuvettes retained the 2 needles during the entire run. One of the needles was attached to the gas line while the second was used for enzyme introduction and then plugged. Due to the bulky nature of the assembly it was impossible to use the installed doors of the spectrophotometers therefore they were removed. A 4-layer thick black felt cover was prepared for each spectro to minimize the amount of light entering the system. While the cuvette was equilibrating to temperature in the spectrophotometer both needles remained in the cuvette with 10 cc syringes still attached. Prior to enzyme introduction one of the syringes was removed while the gas line was attached to the needle. A small flow of gas run through the line while this was done to ensure that there was no oxygen contamination. The needles remained above the liquid level. The second syringe was removed to allow constant flow through the cuvette. The enzyme was injected through the second needle using a 1 cc syringe. The needle was then plugged, the cuvette pressurized and the run begun. A nonpressurized gas run using all four gases was done for each enzyme. Each cuvette was gassed with 10×10 cc of the corresponding gas and refrigerated for 15 minutes. The 2 needles used for gassing the cuvettes were removed when the cuvettes were placed into the spectrophotometer. […]

[5] = tested on: α-D-glucosidase; test: α-D-glucosidase activity under gas; assay type: biochemical; conditions: for effect on α-glucosidase activity: 60° C., FIG. 43; for effect on α-D-glucosidase: FIG. 31
Experimental: Solution preparation: Optimized w/v solutions are prepared by diluting the enzyme (units/ml) and the substrate (μg/ml) in appropriate buffer (optimized pH and molarity for enzymes). The solutions are used for gas experiments at once to avoid loss of activity. Various enzyme and substrate concentrations and inhibitors may be employed. Physical parameters are varied as required. […] Gas-tight serum vials are filled with enzyme and solvent. Sufficient gas is consecutively bubbled in the cuvets and serum vials, with a 1-hr wait between injections to maximize equilibration of gas. All syringes and dead spaces are purged before filling with the appropriate gas. The amount of gas used has been measured sufficient to saturate the solution required. Spectrophotometric time-drive, reaction rate, and kinetic analyses: cuvets and serum vials are saturated with gas 40 minutes before the run. A gas-filled syringe is used to retrieve 0.5 ml of enzyme solution to avoid air contact. […] Changes in the rate or final equilibrium of the reaction versus ambient air are recorded. Comparison is also made with added oxygen, and with deoxygenation. Some samples are also prepared under pressure.

[6] = tested on: transferase enzymes; test: Transferases, effects for the class; assay type: biochemical
Experimental: as §1
as §2, with “All syringes and dead spaces are purged before filling with the appropriate gas.” left out
(§5) Spectrophotometric time-drive, reaction rate, and kinetic analyses: cuvets and serum vials are saturated with gas 40 minutes before the run. […] Changes in the rate or final equilibrium of the reaction versus ambient air are recorded. […]
(§6) In a complete experiment, an enzyme at optimal pH and buffering salt concentration is reacted with 5 substrate concentrations in solution with noble gas at 1 atm. […] The reaction is monitored colorimetrically in a scanning spectrophotometer in real time, and the signals are treated mathematically to obtain rate and yield differences. […]

[7] = tested on: hydrolases; test: Hydrolases, effects for the class; assay type: biochemical
Experimental: as §1
as §2, with “All syringes and dead spaces are purged before filling with the appropriate gas.” left out
as §5, §6

[8] = coupled complex reaction sequence including hydrolytic enzymes
[9] = 30.6 atm (24 hr), Xe = Xe 1 atm/N2 to pressure
[10] = 100 atm (~24 hr), Xe = Xe 1 atm/N2 to pressure

| SMILES | effect [1] | effect on phosphoglucose isomerase ([2]; 10° C., FIG. 34) | effect [2] | Maximum observed enhancement [3, 8] | maximum observed inhibition [3, 8] | Maximum observed enhancement ([3]; isolated reaction) | maximum observed inhibition ([3]; isolated reaction) [%] | inhibition relative to 1 atmosphere after pressurization ([4]; 2 atm) [%] | % inhibition of gases relative to 1 atmosphere of air ([4]; 2 atm experiment) [%] | inhibition relative to 1 atmosphere after pressurization ([4]; 3 atm) [%] | % inhibition of gases relative to 1 atmosphere of air ([4]; 3 atm experiment) [%] | effect on α-glucosidase activity [5] | effect on α-D-glucosidase [5] | effect on transferases [6] | effect on hydrolases [7] | effect on phosphoglucose isomerase ([2]; 25° C., FIG. 35) | effect on tyrosinase ([4]; 30 atm. pressure, FIG. 39) | inhibition relative to 1 atmosphere after pressurization [4, 9] [%] | inhibition relative to 1 atmosphere after pressurization [4, 10] [%] | effect on tyrosinase ([4]; 100 atm. pressure, FIG. 40) | also measured |
| --- | --- | --- | --- | --- | --- | --- | --- | --- | --- | --- | --- | --- | --- | --- | --- | --- | --- | --- | --- | --- | --- |
| [Ar] [Ar, argon] | +16% | enhancement | +232.5% | +67.7% | +34.6% | +75.4% | -27.6 | -90.4 | -76.9 | -72.1 | -55.8 | enhanced; also recorded: potent enhancer | enhancement | – | – | – | – | – | – | – | – |
| [Kr] [Kr, krypton] | +14% | enhancement | +206.4% | +16.1% | -34.6% | +5.0% | -52.6 | -93.1 | -84.5 | – | – | inhibited | – | largest inhibitory or effect | least such effect | – | – | – | – | – | effect on S-acetyl CoA synthetase ([3]; 25° C., FIG. 36): enhancement |
| N#N [N2, nitrogen, reference compound] | – | – | – | +31.2% | -39.5% | +35.7% | -118.7 | -88.5 | -71.2 | -82.6 | -72.1 | enhanced | enhancement | – | – | enhancement | inhibitory effect | -78.8 | -84.7 | inhibitory effect | effect on acetyl S-CoA synthetase compared with noble gases [3]: much lesser effect than noble gases except at superoptimal temperatures; inhibition relative to 1 atmosphere after pressurization ([4]; 30.6 atm (1 hr)): -15.4%; inhibition relative to 1 atmosphere after pressurization ([4]; 100 atm (1 hr)): -20.0% |
| [Ne] [Ne, neon] | – | – | +107% | +2.3% | -21.9% | – | – | -84.5 | -69.0 | – | – | – | enhancement | lowest inhibitory or enhancing effect | – | enhancement | – | – | – | – | effect, stressed [2]: -45% |
| [Xe] [Xe, xenon] | +40% | enhancement | +186% | +18.3% | -25.0% | +15.4% | -39.5 | -86.2 | -76.0 | – | – | enhanced | – | – | largest enhancing effect | – | inhibitory effect | -87.0 | -85.7 | inhibitory effect | enhancement ([1]; with the addition of different competing substrates): up to 200%; effect, stressed [2]: -61%; change in relative effect ([4]; effect of pressure): 75% |

Reference: US5462861A, “Method for improving enzyme activities with noble gases” (American Air Liquide, Chicago Research Center, priority 1993, dated 1995)
